The source of these data is patent US10632130B2, “Dehydroandrosterol and methods of using the same” (A[…], LLC, priority 2016, dated 2020).

The structures appear in SMILES notation. Like-named read-outs stand apart in the source and are kept apart here.

For one data set, the system named is goats. How it is done: Caprine studies were also performed in two test animals. The test animals selected were monozygous male twins, castrated and placed in separate pens not later than six weeks after birth.
At approximately three months of age, one of these two goats was selected to receive daily DHA in a single, bolus, oral dose. The other goat was not given DHA, and served as the control. All parameters were equalized (pen size, ambient temperature, once daily exercise for 15 minutes on tread mill, 30 minute “play” time with other goats, twice daily ad-lib feeding of identical source feed, etc.)
Dosing was initiated in the test goat at 50 mg. After two weeks, the dose was increased to 100 mg, then after another two weeks increased to 200 mg, then maintained at that dose for an additional four weeks.
At the end of the eight week testing period, the two test animals were weighed to establish gains made from their original base-line weight at the beginning of the study.

Data set [1] has as its system human, male volunteers. An excerpt: Two human, male volunteers were selected to trial the encapsulated DHA material by daily oral administration. They were allowed to select their own serving schedules and serving sizes (within reason of extrapolated values), provided they be consistent and document the compliance of their regimens. Both were of mature age, not naive to various exogenously supplied androgens, and in good general health. Food and exercise routine was not modified from normal during the testing period, so as to avoid introduction of confounding variables.
In particular, Trial Participant #1 was a person who took five capsules a day (100 mg/day DHA) of the composition for sixteen weeks. […] Trial Participant #2 was a person who took four capsules a day (80 mg/day DHA) of the composition for six weeks.

Data set [2] concerns human, male volunteers. Here is the method:
Two human, male volunteers were selected to pre-trial the DHA material by single daily oral administration. Both were of mature age, not naive to various exogenously supplied androgens, and in good general health. Food and exercise routine was not modified from normal during the testing period, so as to avoid introduction of confounding variables.
Doses were ramped 50 mg weekly, beginning at 50 mg and concluding at 200 mg.
One of the test subjects (Subject #2) took a two week washout after this initial testing regiment and resumed testing at 100 mg, ramping the dose weekly as prior but using 100 mg increments, such that at four weeks of testing the subject was using 400 mg.
After another two week washout period, Subject #2 elected to resume testing of DHA with another related compound, androsterone, at various doses. Over several more months, this DHA/androsterone ratio was altered over a range and maintained at various ratios for not less than five days at a time before modification.
This is another data set of the same source.

The conditions of data set [3]: testosterone as comparative standard; estimated; cited from earlier work.
The mark [4] stands for this setting: Trial Participant #2, 80 mg/day DHA, six weeks.

Turning to `C[C@]12CC[C@H]3[C@@H](CC=C4C[C@H](O)CC[C@@]43C)[C@@H]1CC[C@@H]2O` [DHA, 5-Androsten-3a,17b-diol], the “reported effects of consumer use” value was “increases in strength, lean muscle gains, increased fat loss, appetite increase, libido boost, increased energy, and increased muscle hardness”. In the data set on goats (test goat in play pen with superior goats), the “male behavior in castrate male” value was “Alpha-male behavior was indeed noted to be established”. Besides, the “appetite and food intake” value in the data set with goats (test goat versus control) was “greater appetite and food intake”. The “weight gain relative to control goat” value in the data set on goats (test goat, eight weeks) is “approximately double”. In addition, the general weight gain with goats (test goat, eight weeks, from base-line 46 pounds, control 33%) was 59%. In addition, the “weight at end of testing” value with goats (test goat, eight weeks, oral 50 mg, then 100 mg, then 200 mg daily, start weight 46 pounds, control 61 pounds) came out at 73 pounds. Moreover, in the data set with human, male volunteers [1] (Trial Participant #1, 100 mg/day DHA, sixteen weeks), the weight gained entry is listed as “fifteen”. Also, the “bench press at the end” value with human, male volunteers [1] (Trial Participant #1, 100 mg/day DHA, sixteen weeks, 270 pounds at the beginning) was found to be 340. For the same compound, the “single repetition leg squats at the end” value in the data set on human, male volunteers [1] (Trial Participant #1, 100 mg/day DHA, sixteen weeks, 430 pounds at the beginning) was found to be 545 pounds. Moreover, in the data set on human, male volunteers [1] (Trial Participant #1, 100 mg/day DHA, sixteen weeks, 455 pounds at the beginning), the “deadlift at the end” value is given as 560 pounds. For the same compound, in the data set with human, male volunteers [1] (setting [4]), the “improvement of all major lifting measurements from start to finish” value was 20-25 pounds and the weight gained entry is given as “twelve”. In the data set on human, male volunteers [2] (Subject #2, extended testing, co-administered androsterone over a wide dose range), the “androgenic synergism with androsterone” value is recorded as “punctuated androgenic synergism”. In the data set with human, male volunteers [2] (both test subjects), the “dose dependence of effects” value is “proportional to dose in a fairly linear fashion” and the “parameters associated with enhanced androgen status (muscle hardness/fullness, strength)” value was “distinct improvements”. Further, the “side-effects characteristic of exogenous hormones” value in the data set on human, male volunteers [2] (both test subjects, acne only noted at the higher doses tested) is “mild acne being the only undesirable effect”. Further, the “subjective improvements, as defined by weight, strength, and/or muscle hardness gain” value in the data set on human, male volunteers [2] (both test subjects, one month, oral doses ramped 50 mg weekly from 50 mg to 200 mg) is “subjective improvements”. In addition, in data set [3], the “relative androgenic activity equivalent to that of testosterone” value was “approximately 43%”. For the same compound, the reported side effects entry (consumer use) is “slight acne and slight lethargy”.
